Non-standard residues stand in square brackets, D forms with d. No end group written: not given here. 2Nal = N[C@@H](Cc1ccc2ccccc2c1)C(=O)O; Sar = CNCC(=O)O
Key:
[1] = system: carboplatin treated mice; assay: Example 1: increasing doses one day after carboplatin, anemia in mice; format: in vivo, BALB/c mouse
Procedure: (§1) The effects of PEGylated TPO Compound No. 1 on mice treated with carboplatin were observed. For all examples herein, a 10 mg/ml stock solution of PEGylated TPO Compound No. 1 was prepared in sterile saline. For mixing, the preparation was placed on a gyratory shaker for 15 mm. at 200 rpm. This method was used to dissolve PEGylated TPO Compound No. 1 without foaming. The stock was filtered using a GV Millex (0.22 μm) filter. Dosing solutions were then prepared from this stock using sterile saline. The stock and dosing solutions were prepared fresh on the day of use.
The effect of PEGylated TPO Compound No. 1 on the duration and severity of anemia following treatment of mice with carboplatin as determined by changes in hemoglobin levels, red blood cell count and hematocrit, was observed. For this study, increasing amounts of PEGylated TPO Compound No. 1 were administered to mice one day following a carboplatin dose to characterize a possible dose-dependent effect on various red blood cell parameters.
The groups of mice were treated with either carboplatin or vehicle (Phosphate Buffered Saline, PBS) by intraperitoneal administration on Days −2 and −1 as delineated below. The optimal dose of carboplatin used to induce thrombocytopenia in the BALB/c mouse strain was previously determined to be a fractionated total dose of 120 mg/kg given as two consecutive daily injections (i.e., 2×60 mg/kg). One day following the second dose of carboplatin, groups of mice were treated with PEGylated TPO Compound No. 1 or vehicle (sterile saline, SS, preservative-free 0.90% sodium chloride) by IV (bolus) injection as delineated in Table 1. The dose was administered on a per-weight basis (100 μl/10 g body weight).
(§2) On Days 5, 7, 9 and 11, five mice in each test group were weighed and then euthanised using CO2-asphyxiation and exsanguinations via cardiac puncture. The blood samples were transferred to separate EDTA (lavender-top) microcontainers for hematologic evaluation. Groups of control mice (5) were processed on Days 5 and 11. The data are presented graphically as group means +SEM.

[2] = system: carboplatin treated mice; assay: Example 3: dosing at various times after carboplatin, anemia in mice; format: in vivo, BALB/c mouse
Procedure: as §1
The effect of PEGylated TPO Compound No. 1 on the duration and severity of anemia following dosing regimens in which PEGylated TPO Compound No. 1 is administered at various times following the carboplatin treatment was observed. For this study, an amount of PEGylated TPO Compound No. 1 was administered to mice, one (1) hour, one (1) day or four (4) days following a carboplatin dose.
(§3) The groups of mice were treated with either carboplatin or vehicle (Phosphate Buffered Saline, PBS) by ip administration on Days −1 and 0 as delineated below. The optimal dose of carboplatin used to induce thrombocytopenia in the BALB/c mouse strain was previously determined to be a fractionated total dose of 120 mg/kg given as two consecutive daily injections (i.e., 2×60 mg/kg). One hour (Day 0), one day (Day 1) or four days (Day 4) following the second dose of carboplatin, groups of mice were treated with PEGylated TPO Compound No. 1 (300 μg/kg) or vehicle (sterile saline, SS, preservative-free 0.9% sodium chloride) by IV (bolus) injection as delineated in Table 3. The dose was administered on a per-weight basis (100 μl/10 g body weight).
as §2, with “6, 8, 10 & 12,” for “5, 7, 9 and 11,”, “hematological” for “hematologic”, “6 & 12.” for “5 and 11.”

[3] = system: carboplatin-treated mice; assay: Example 4: lower doses, survival of erythrocyte lineages in carboplatin-treated mice; format: in vivo, BALB/c mouse
Procedure: as §1
The ability of PEGylated TPO Compound No. 1 to function as a survival factor for megakaryocyte and erythrocyte lineages in carboplatin-treated mice as determined by changes in hematological parameters was observed. […] In this study, the effect of lower doses of PEGylated TPO Compound No. 1 (i.e., 30, 100 and 300 μg/kg) on the survival of erythrocyte lineages was examined to characterize the dose-response for this effect.
as §3, with “Approximately one” for “One”, “hour” for “hour (Day 0), one day (Day 1) or four days (Day 4)”, “1” for “1 (300 μg/kg)”, “4.” for “3.”
as §2, with “6, 8” for “5, 7, 9”, “12,” for “11,”, “6 & 12.” for “5 and 11. The data are presented graphically as group means +SEM.”

[4] = system: carboplatin treated mice; assay: Example 5: two rounds of high-dose carboplatin, hematocrit and survival of mice; format: in vivo, mouse; conditions: between days 4 and 18
Procedure: as §1
Groups of mice were treated with two rounds of the chemotherapeutic agent (carboplatin) ten days apart, with each round consisting of two consecutive days of carboplatin (i.e., 70 mg/kg/day administered on Days −1 & 0 and Days 10 & 11) as delineated below. The dose of carboplatin utilized for these survival studies exceeded the maximal tolerated dose for mice (i.e., 120 mg/kg; administered as 60 mg/kg/day on 2 consecutive days). One hour following the second dose of carboplatin in each round (i.e., Day 0 and 11) mice were treated with PEGylated TPO Compound No. 1 (100 μg/kg) or vehicle (sterile saline, SS, preservative-free 0.9% sodium chloride) by IV (bolus) injection as delineated below. The dose was administered on a per weight basis (100 μl/10 g body weight). […]

Molecule	decrease in hemoglobin levels ([1]; carboplatin alone 2×60 mg/kg ip, by Day 11) [%]	decreases in hemoglobin levels, RBC counts and hematocrits ([2]; carboplatin alone 2×60 mg/kg ip, surviving mice (2 mice) by Day 12 compared to control groups)	decrease in hemoglobin levels ([3]; carboplatin alone 2×60 mg/kg ip, by Day 12)	deaths among mice not utilized for hematological evaluation ([4]; carboplatin alone 70 mg/kg/day, 2 rounds) [mice]	carboplatin-associated decreases in RBC count and hematocrit ([1]; 300, 1000, 3000 μg/kg iv one day after carboplatin, no statistical evaluation)	carboplatin-induced decrease in hemoglobin levels ([1]; all doses (300, 1000, 3000 μg/kg iv, one day after carboplatin 2×60 mg/kg ip), by Day 11)	body weight after carboplatin ([1]; all doses tested, 11-Day study period)	altered appearance and behavior (hunched, flaccid, soiled anogenital areas) ([1]; appeared to be dose-dependent)	carboplatin-induced decreases in hemoglobin levels, RBC counts and hematocrits ([2]; 300 μg/kg iv on Day 0 (1 hour after carboplatin) and on Day 1)	weight loss associated with carboplatin treatment ([2]; 300 μg/kg iv on Day 0, Day 1 or Day 4, no statistical analysis)	carboplatin-induced changes in erythrocyte parameters ([2]; 300 μg/kg iv on Day 4)	onset, frequency or severity of signs (hunched, flaccid) ([2]; 300 μg/kg iv, no detailed analysis)	carboplatin-induced anemia ([2]; dosed within 24 hours of chemotherapy)	carboplatin-induced decreases in RBC counts and hematocrit ([3]; 30, 100, 300 μg/kg iv)	weight loss or recovery ([3]; 30, 100, 300 μg/kg iv, 13-Day study period)	carboplatin-induced decrease in hemoglobin levels ([3]; all doses (30, 100, 300 μg/kg iv, about one hour after second carboplatin dose), Day 12)	anemia induced by carboplatin ([3]; all doses, Day 12)	altered appearance and behavior (hunched, unkempt, soft stool) ([3]; appeared to be dose-dependent)	deaths among mice not utilized for hematological evaluation ([4]; combination therapy (carboplatin 70 mg/kg/day, 2 rounds, plus 100 μg/kg iv)) [mouse]
N.N.O=C([O-])C1(C(=O)[O-])CCC1.[Pt+2] [carboplatin, reference compound]	~20	approx. 47%	greater than 25%	7	–	–	–	–	–	–	–	–	–	–	–	–	–	–	–
Methoxypolyethyleneglycol20000-propionyl-L-Isoleucyl-L-Glutamyl-Glycyl-L-Prolyl-L-Threonyl-L-Leucyl-L-Arginyl-L-Glutaminyl-L-2-Naphthylalanyl-L-Leucyl-L-Alanyl-L-Alanyl-L-Arginyl-Sarcosyl-Ne-(methoxypolyethyleneglycol20000-propionyl-L-Isoleucyl-L-Glutamyl-Glycyl-L-Prolyl-L-Threonyl-L-Leucyl-L-Arginyl-L-Glutaminyl-L-2-Naphthylalanyl-L-Leucyl-L-Alanyl-L-Alanyl-L-Arginyl-Sarcosyl-)-Lysinamide ({methoxypolyethyleneglycol20000‑propionyl}-IEGPTLRQ[2Nal]LAAR[Sar]K[Sar]RAAL[2Nal]QRLTPGEI; also: dimer: positions 16-29 are the second 14-mer written in reverse, its Sar C-terminus joined to the K15 epsilon-amine, K15 is C-terminal lysinamide (NH2), methoxypolyethyleneglycol20000-propionyl also on Ile29 N-terminus) [PEGylated TPO Compound No. 1]	–	–	–	–	inhibited	inhibited	enhanced the recovery of the lost body weight	decreased the onset, frequency and severity of these signs	prevented	did not appear to affect the weight loss	failed to affect carboplatin-induced changes	did not appear to have a dramatic effect	Prevention of carboplatin-induced anemia is observed	effectively inhibited	did not appear to affect weight loss or recovery	totally inhibited	completely prevent the anemia	decreased the onset, frequency and severity of these signs	1

Source: US7615533B2, “TPO peptide compounds for treatment of anemia” (Janssen Pharmaceutica N.V., priority 2004, dated 2009)
